Where two headings read alike, the source gives them in different places.
How the values were obtained:
Inducible NO synthase = molecular target: T1, Inducible NO synthase (Rattus norvegicus, UniProt Q06518); test: Inducible NO synthase inhibition (method essentially according to Rees et al, Biochem. Biophys. Res. Comm. 1990; rat aortic rings, LPS-induced loss of tone); assay type: cell-based; details: for EC50 ratio: constitutive EC50 / inducible EC50
T1 construct: activity of the inducible enzyme in the vascular smooth muscle cells; from tissue; host or cells: rat aortic rings, LPS-induced (vascular smooth muscle)
Description: (§1) The activity of a compound as an inhibitor of the enzyme NO synthase can be determined by an assay in which a macrophage cell line (J774) is induced to express NO synthase with lipopolysaccharide (LPS) and interferon gamma and NO generated is measured by its reaction with haemoglobin or as nitrite. […] Selectivity can be determined by use of an assay based on rat aortic rings in vitro. The basal tone of the tissue is used as an indication of the activity of the constitutive NO synthase whereas LPS-induced loss of tone mediated by NO is used as an indication of the activity of the inducible enzyme in the vascular smooth muscle cells.
Inducible NO synthase--method essentially according to Rees et al, Biochem. Biophys. Res. Comm., 173, 541-547 (1990).

Constitutive NO synthase = molecular target: T2, Constitutive NO synthase (Rattus norvegicus, UniProt Q62600); test: Constitutive NO synthase inhibition (method of Rees et al, Br. J. Pharmacol. 1990; rat aortic rings in vitro, basal tone); assay type: cell-based
T2 construct: The basal tone of the tissue is used as an indication of the activity of the constitutive NO synthase; from tissue; host or cells: rat aortic rings
Description: as §1, with “cells. […] Constitutive NO synthase--method of Rees et al, Br. J. Pharmacol., 101, 746-752 (1990)” for “cells.”

[1] = tested on: constitutive and the inducible NO synthase; details: inhibits both constitutive and inducible NO synthase; cited from earlier work
[2] = inducible NO synthase, read-out: NO Synthase Activity Inducible EC50

Compound	EC50 ratio (Inducible NO synthase)	EC50 (Inducible NO synthase; [2]) [nM]	EC50 (Constitutive NO synthase) [nM]	EC50 (Inducible NO synthase) [nM]	selectivity between constitutive and inducible NO synthase [1]
CC(=N)NC/C=C/CC(N)C(=O)O.Cl (racemic) [Example 3, (±)-E-2-Amino-6-(1-Iminoethylamino)-hex-4-enoic acid hydrochloride]	9.7	320	3100		
CC(=N)NCCC[C@H](N)C(=O)O.Cl [Example 1, (S)-N^5-(1-Iminoethyl)ornithine hydrochloride]	36.4	140	5100		
CC(=N)NCCCC[C@H](N)C(=O)O.Cl [Example 2, (S)-N^6-(1-Iminoethyl) lysine hydrochloride]	43.1		6900	160	
CC(=N)NCCSC[C@@H](N)C(=O)O.Cl [Example 4, (S)-S-2-(1-Iminoethylamino)ethylcysteine hydrochloride]	33.4	130	4300		
CN=C(N)NCCC[C@H](N)C(=O)O [L-NMMA, L-N-monomethyl-arginine]					non-selective
